Assay results as given in PubChem BioAssay AID2060503 (Molecular Pharmacology Branch, DTP, NCI, 2025).

System: 817829-284-R-J1-PDC complex spheroids, viability
Assay: Anticancer human tumor 817829-284-R-J1-PDC patient-derived colon adenocarcinoma cell line growth inhibition [GQUAD]
Conditions: for IC50: curve of first compound; for viability, T/C: stronger effect = lower value
How it was run: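 Viability of tumor cells grown as complex spheroids with endothelial and stromal cells, exposed to drug combinations. Top concentration at or near clinical Cmax (else 10 microM), diluted in half-log increments.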

[1] = second compound 0.0316 µM, first compound 0.0316 µM
[2] = second compound 0.0316 µM, first compound 0.1 µM
[3] = second compound 0.0316 µM, first compound 0.316 µM
[4] = second compound 0.0316 µM, first compound 1 µM
[5] = second compound 0.0316 µM, first compound 3.16 µM
[6] = second compound 0.0316 µM, first compound 10 µM
[7] = second compound 0.1 µM, first compound 0.0316 µM
[8] = second compound 0.1 µM, first compound 0.1 µM
[9] = second compound 0.1 µM, first compound 0.316 µM
[10] = second compound 0.1 µM, first compound 1 µM
[11] = second compound 0.1 µM, first compound 3.16 µM
[12] = second compound 0.1 µM, first compound 10 µM
[13] = second compound 0.316 µM, first compound 0.0316 µM
[14] = second compound 0.316 µM, first compound 0.1 µM
[15] = second compound 0.316 µM, first compound 0.316 µM
[16] = second compound 0.316 µM, first compound 1 µM
[17] = second compound 0.316 µM, first compound 3.16 µM
[18] = second compound 0.316 µM, first compound 10 µM
[19] = second compound 1 µM, first compound 0.0316 µM
[20] = second compound 1 µM, first compound 0.1 µM
[21] = second compound 1 µM, first compound 0.316 µM
[22] = second compound 1 µM, first compound 1 µM
[23] = second compound 1 µM, first compound 3.16 µM
[24] = second compound 1 µM, first compound 10 µM
[25] = second compound 3.16 µM, first compound 0.0316 µM
[26] = second compound 3.16 µM, first compound 0.1 µM
[27] = second compound 3.16 µM, first compound 0.316 µM
[28] = second compound 3.16 µM, first compound 1 µM
[29] = second compound 3.16 µM, first compound 3.16 µM
[30] = second compound 3.16 µM, first compound 10 µM
[31] = second compound 10 µM, first compound 0.0316 µM
[32] = second compound 10 µM, first compound 0.1 µM
[33] = second compound 10 µM, first compound 0.316 µM
[34] = second compound 10 µM, first compound 1 µM
[35] = second compound 10 µM, first compound 3.16 µM
[36] = second compound 10 µM, first compound 10 µM
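Further: spheroids exposed to agents for 7 days before readout.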
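Wherever viability, T/C is given: percent viability relative to DMSO vehicle control taken as 100%.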

C=CCn1c(=O)c2cnc(Nc3ccc(N4CCN(C)CC4)cc3)nc2n1-c1cccc(C(C)(C)O)n1 + CN(C)c1ccc(Nc2c3ccc(NC(=O)CCN4CCCC4)cc3nc3cc(NC(=O)CCN4CCCC4)ccc23)cc1
IC50 (second compound 0.0316 µM): 0.24 µM
IC50 (second compound 0.1 µM): 0.22 µM
IC50 (second compound 0.316 µM): 0.263 µM
IC50 (second compound 1 µM): 0.231 µM
IC50 (second compound 3.16 µM): 0.214 µM
IC50 (second compound 10 µM): 0.19 µM
viability, T/C [1]: 99.2%
viability, T/C [2]: 106%
viability, T/C [3]: 33.4%
viability, T/C [4]: 9.73%
viability, T/C [5]: 6.22%
viability, T/C [6]: 6.74%
viability, T/C [7]: 88.5%
viability, T/C [8]: 101%
viability, T/C [9]: 29.5%
viability, T/C [10]: 9.11%
viability, T/C [11]: 7.3%
viability, T/C [12]: 5.57%
viability, T/C [13]: 102%
viability, T/C [14]: 109%
viability, T/C [15]: 39.2%
viability, T/C [16]: 9.34%
viability, T/C [17]: 7.03%
viability, T/C [18]: 5.88%
viability, T/C [19]: 99.8%
viability, T/C [20]: 102%
viability, T/C [21]: 30.9%
viability, T/C [22]: 9.37%
viability, T/C [23]: 6.93%
viability, T/C [24]: 6.42%
viability, T/C [25]: 89.3%
viability, T/C [26]: 102%
viability, T/C [27]: 26.4%
viability, T/C [28]: 10.9%
viability, T/C [29]: 7.22%
viability, T/C [30]: 5.95%
viability, T/C [31]: 104%
viability, T/C [32]: 82.4%
viability, T/C [33]: 24%
viability, T/C [34]: 11.2%
viability, T/C [35]: 7.11%
viability, T/C [36]: 2.4%

Cn1ncnc1[C@H]1c2n[nH]c(=O)c3cc(F)cc(c23)N[C@@H]1c1ccc(F)cc1 + Cc1cnc(CNC(=O)c2c(=O)c3ccc(N4CCCN(C)CC4)nc3n3c2sc2ccccc23)cn1
IC50 (second compound 0.0316 µM): 0.0273 µM
IC50 (second compound 0.1 µM): < 0.000999 µM
IC50 (second compound 0.316 µM): < 0.000999 µM
IC50 (second compound 1 µM): < 0.000999 µM
IC50 (second compound 3.16 µM): < 0.000999 µM
IC50 (second compound 10 µM): < 0.000999 µM
viability, T/C (second compound 0.0316 µM, first compound 0.000999 µM): 84.5%
viability, T/C (second compound 0.0316 µM, first compound 0.00316 µM): 70.5%
viability, T/C (second compound 0.0316 µM, first compound 0.00999 µM): 58.1%
viability, T/C [1]: 48.8%
viability, T/C (second compound 0.0316 µM, first compound 0.0999 µM): 43.6%
viability, T/C [3]: 42.4%
viability, T/C (second compound 0.1 µM, first compound 0.000999 µM): 38.6%
viability, T/C (second compound 0.1 µM, first compound 0.00316 µM): 35.7%
viability, T/C (second compound 0.1 µM, first compound 0.00999 µM): 29.8%
viability, T/C [7]: 34.2%
viability, T/C (second compound 0.1 µM, first compound 0.0999 µM): 31.7%
viability, T/C [9]: 29.6%
viability, T/C (second compound 0.316 µM, first compound 0.000999 µM): 26.3%
viability, T/C (second compound 0.316 µM, first compound 0.00316 µM): 25.3%
viability, T/C (second compound 0.316 µM, first compound 0.00999 µM): 27.7%
viability, T/C [13]: 26.7%
viability, T/C (second compound 0.316 µM, first compound 0.0999 µM): 26.4%
viability, T/C [15]: 25.3%
viability, T/C (second compound 1 µM, first compound 0.000999 µM): 21.2%
viability, T/C (second compound 1 µM, first compound 0.00316 µM): 22.5%
viability, T/C (second compound 1 µM, first compound 0.00999 µM): 23.2%
viability, T/C [19]: 22.9%
viability, T/C (second compound 1 µM, first compound 0.0999 µM): 23.3%
viability, T/C [21]: 22%
viability, T/C (second compound 3.16 µM, first compound 0.000999 µM): 20.3%
viability, T/C (second compound 3.16 µM, first compound 0.00316 µM): 21%
viability, T/C (second compound 3.16 µM, first compound 0.00999 µM): 19.8%
viability, T/C [25]: 19.4%
viability, T/C (second compound 3.16 µM, first compound 0.0999 µM): 20.4%
viability, T/C [27]: 16.3%
viability, T/C (second compound 10 µM, first compound 0.000999 µM): 0.16%
viability, T/C (second compound 10 µM, first compound 0.00316 µM): 0.2%
viability, T/C (second compound 10 µM, first compound 0.00999 µM): 0.19%
viability, T/C [31]: 0.17%
viability, T/C (second compound 10 µM, first compound 0.0999 µM): 0.19%
viability, T/C [33]: 0.2%

C=CCn1c(=O)c2cnc(Nc3ccc(N4CCN(C)CC4)cc3)nc2n1-c1cccc(C(C)(C)O)n1 + Cc1cnc(CNC(=O)c2c(=O)c3ccc(N4CCCN(C)CC4)nc3n3c2sc2ccccc23)cn1
IC50 (second compound 0.0316 µM): 0.0529 µM
IC50 (second compound 0.1 µM): < 0.0316 µM
IC50 (second compound 0.316 µM): < 0.0316 µM
IC50 (second compound 1 µM): < 0.0316 µM
IC50 (second compound 3.16 µM): < 0.0316 µM
IC50 (second compound 10 µM): < 0.0316 µM
viability, T/C [1]: 61.2%
viability, T/C [2]: 35.9%
viability, T/C [3]: 17.1%
viability, T/C [4]: 6.1%
viability, T/C [5]: 4.9%
viability, T/C [6]: 4.63%
viability, T/C [7]: 25.2%
viability, T/C [8]: 25.4%
viability, T/C [9]: 13.4%
viability, T/C [10]: 10.5%
viability, T/C [11]: 7.47%
viability, T/C [12]: 6.17%
viability, T/C [13]: 20.3%
viability, T/C [14]: 18.2%
viability, T/C [15]: 15.1%
viability, T/C [16]: 10.6%
viability, T/C [17]: 8.59%
viability, T/C [18]: 7.12%
viability, T/C [19]: 16.9%
viability, T/C [20]: 20.6%
viability, T/C [21]: 13.9%
viability, T/C [22]: 10.2%
viability, T/C [23]: 7.61%
viability, T/C [24]: 6.9%
viability, T/C [25]: 18.4%
viability, T/C [26]: 17%
viability, T/C [27]: 14.1%
viability, T/C [28]: 9.62%
viability, T/C [29]: 6.71%
viability, T/C [30]: 6.66%
viability, T/C [31]: 0.11%
viability, T/C [32]: 0.15%
viability, T/C [33]: 0.15%
viability, T/C [34]: 0.14%
viability, T/C [35]: 0.17%
viability, T/C [36]: 0.2%
